Assay results: US7498406B2, “Substantially cell membrane impermeable compound and use thereof” (priority 1999, dated 2009)
Entries after “also recorded” stand apart in the source; their conditions may differ.

Legend:
3T3 [1] = experiment: Proliferation of cultured cells, 72 hr; type: cell-based, murine; conditions: 5% FCS, 0 to 1 mM
Method: (§1) FIG. 19. Effect of GSAO on proliferation of non-endothelial cells. 15,000 BxPC-3 (part A), HT1080 (part B), 3T3 (part C) or BVSM (part D) cells per well were seeded into gelatinised 24-well culture plates and allowed to attach for 24 hr. The media was then replaced with DMEM containing 0 to 1 mM GSAO or GSAA and either 5% BCS (part D) or 5% FCS (parts A, B and C). Cells were cultured for 72 hr and then dispersed and counted. The dotted lines indicate the cell number in control wells containing DMEM and 2% BCS (part D) or 2% FCS (parts A, B and C) which represented no to limited proliferation. The data points and errors represent the mean and range of duplicate wells.
(§2) BCE (Folkman et al. 1979), BAE, BxPC-3 (ATCC, Bethesda, Md.), HT1080 (Jiang et al., 1999), 3T3 (ATCC, Bethesda, Md.) and BVSM (Hogg et al., 1997) cells were harvested and cultured as indicated. […] Cells were cultured for 0 to 72 hr in 10% CO2 at 37° C. then dispersed in trypsin/EDTA (GibcoBRL, Granc Island, N.Y.), resuspended in Coulter balanced electrolyte solution and counted with a Z1 Coulter counter (Coulter Corp., Miami, Fla.) in all experiments there were two control wells containing DMEM with 1% GPS and either 5% BCS for BCE cells, 2% BCS for BAE and BVSM cells, or 2% FCS for BxPC-3, HT1080 and 3T3 cells. […]

BVSM = experiment: Proliferation of cultured cells, 72 hr; type: cell-based, bovine; conditions: 5% BCS, 0 to 1 mM
Method: as §1, §2

BAE [2] = experiment: Viability of cultured cells, 72 hr; type: cell-based, bovine
Method: BCE (Folkman et al. 1979), BAE, BxPC-3 (ATCC, Bethesda, Md.), HT1080 (Jiang et al., 1999), 3T3 (ATCC, Bethesda, Md.) and BVSM (Hogg et al., 1997) cells were harvested and cultured as indicated. Cells (0.5 mL of 30,000 or 100,000 cells per mL) were seeded into gelatinized 24-well culture plates (Corning Costar, Corning, N.Y.) in Dulbecco's Modified Eagle's Medium (DMEM, JHR Bioscience, Lenexa, Kans.) containing 10% fetal calf serum (FCS, Intergen Comp., Purchase, N.Y.) and 1% Glutamine Pen-Strep (GPS, Irvine Scientific, Santa Ana, Va.) and allowed to attach for 24 hr in 10% CO2 at 37° C. The media was then replaced with DMEM and 1% GPS containing 0 to 1 mM GSAO or GSAA and either 5% bovine calf serum (BCS, HyClone, Logan, Utah) and 1 ng per mL FGF-2 (Genzyme, Cambridge, Mass.) or 5% BCS and 10 ng per mL VEGF (Genzyme, Cambridge, Mass.) for BCE cells, 5% or 10% BCS for BAE cells, 5% BCS for BVSM cells, and 5% FCS for BxPC-3, HT1080 and 3T3 cells. Cells were cultured for 0 to 72 hr in 10% CO2 at 37° C. then dispersed in trypsin/EDTA (GibcoBRL, Granc Island, N.Y.), resuspended in Coulter balanced electrolyte solution and counted with a Z1 Coulter counter (Coulter Corp., Miami, Fla.) in all experiments there were two control wells containing DMEM with 1% GPS and either 5% BCS for BCE cells, 2% BCS for BAE and BVSM cells, or 2% FCS for BxPC-3, HT1080 and 3T3 cells. […]

BAE [3] = experiment: Proliferation of cultured cells, 72 hr; type: cell-based, bovine; conditions: for IC50: 72 hr
Method: BCE (Folkman et al. 1979), BAE, BxPC-3 (ATCC, Bethesda, Md.), HT1080 (Jiang et al., 1999), 3T3 (ATCC, Bethesda, Md.) and BVSM (Hogg et al., 1997) cells were harvested and cultured as indicated. Cells (0.5 mL of 30,000 or 100,000 cells per mL) were seeded into gelatinized 24-well culture plates (Corning Costar, Corning, N.Y.) in Dulbecco's Modified Eagle's Medium (DMEM, JHR Bioscience, Lenexa, Kans.) containing 10% fetal calf serum (FCS, Intergen Comp., Purchase, N.Y.) and 1% Glutamine Pen-Strep (GPS, Irvine Scientific, Santa Ana, Va.) and allowed to attach for 24 hr in 10% CO2 at 37° C. The media was then replaced with DMEM and 1% GPS containing 0 to 1 mM GSAO or GSAA and either 5% bovine calf serum (BCS, HyClone, Logan, Utah) and 1 ng per mL FGF-2 (Genzyme, Cambridge, Mass.) or 5% BCS and 10 ng per mL VEGF (Genzyme, Cambridge, Mass.) for BCE cells, 5% or 10% BCS for BAE cells, 5% BCS for BVSM cells, and 5% FCS for BxPC-3, HT1080 and 3T3 cells. Cells were cultured for 0 to 72 hr in 10% CO2 at 37° C. then dispersed in trypsin/EDTA (GibcoBRL, Granc Island, N.Y.), resuspended in Coulter balanced electrolyte solution and counted with a Z1 Coulter counter (Coulter Corp., Miami, Fla.) in all experiments there were two control wells containing DMEM with 1% GPS and either 5% BCS for BCE cells, 2% BCS for BAE and BVSM cells, or 2% FCS for BxPC-3, HT1080 and 3T3 cells. These wells represented no to limited proliferation.

BxPC-3 tumours [4] = experiment: Tumour growth, continuous intraperitoneal administration by micro-osmotic pumps; type: in vivo, SCID mice; conditions: 10 mg per kg per day
Method: FIG. 27. Inhibition of human pancreatic carcinoma tumour growth by continuous intraperitoneal administration of GSAO. BxPC-3 tumours were established in the proximal midline of female 7 to 9 week old SCID mice. Mice bearing ˜0.1 g tumours were implanted with 14 day alzet model 1002 micro-osmotic pumps (ALZA Corporation, Palo Alto, Calif.) in the peritoneal cavity. The pumps contained 45 mg per mL GSAA or GSAO and delivered 10 mg per kg per day. The pumps were replaced after 14 days. Pump duration is indicated by the shaded bar. Tumour volume and animal weight was measured every 3 days.
SCID mice bearing subcutaneous human BxPC-3-pancreatic carcinoma tumours were implanted with 14 day micro-osmotic pumps in the peritoneal cavity. The pumps delivered 10 mg per kg per day GSAA or GSAO and were replaced after 14 days with fresh pumps. The rate of growth of the BxPC-3 tumours was inhibited in the mice receiving GSAO (FIG. 27). […] When the second pump was exhausted one of the halted tumours began to grow at about the same rate as the GSAA-treated tumour while the other tumour had resolved completely.

3T3 [5] = experiment: Viability of cultured cells, 72 hr; type: cell-based, murine; conditions: 0 to 1 mM
Method: as §1, §2

HDMVE cells = experiment: Endothelial cell tube formation in Matrigel; type: cell-based, human; conditions: 0.1, 1 or 100 μM; 18 hours
Method: FIG. 21. GSAO perturbs endothelial cell tube formation in Matrigel. Matrigel (100 μl) was added to wells of 96 well plates and allowed to gel for 60 minutes at 37° C. HDMVE cells (10,000 cells per well) in complete media containing 0.1, 1 or 100 μM GSAA or GSAO were seeded onto the Matrigel and the plates were incubated in 5% CO2, 37° C. The phase contrast micrographs were taken after 18 hours incubation.
Endothelial cells arrange into tube-like structures when seeded onto three-dimensional matrices such as the extracellular matrix preparation, Matrigel, or collagen. The tubes can be considered to represent immature blood vessels. Matrigel (100 μl, Becton Dickinson, Bedford, Mass.) was added to wells of 96 well plates (Gibco BRL, Gaithersburg, Md.) and allowed to gel for 60 minutes at 37° C. Human dermal microvascular endothelial (HDMVE) cells were harvested and cultured as described by Stathakis et al (1997), HDMVE cells (8,000 cells per well) in 150 μl of M199 (Gibco BRL, Gaithersburg, Md.) media containing 30% pooled human serum, 50 μg per mL Heparin (Sigma, St. Louis, Mo.), 100 μg per mL Endothelial Cell Growth Supplement (Gibco BRL, Gaithersburg, Md.) and 0.1, 1 or 100 μM GSAA or GSAO were seeded onto the Matrigel and the plates were incubated for 18 hours in 5% CO2, 37° C. Phase contrast micrographs of the wells were collected.

BxPC-3 tumours [6] = experiment: Tumour growth, oral administration in water; type: in vivo, SCID mice; conditions: ~10 mg per kg per day in water
Method: FIG. 28. Inhibition of human pancreatic carcinoma and murine Lewis lung tumour growth by oral administration of GSAO. BxPC-3 or Lewis lung tumours were established in the proximal midline of female 7 to 9 week old SCID or C57Bl6/J mice, respectively, SCID mice bearing ˜0.5 g BxPC-3 tumours or C57Bl6/J mice bearing 0.1 g Lewis lung tumours were randomised into two groups (n=2 for BxPC-3 and n=3 for Lewis lung) and treated with either GSAA or GSAO (0.05 mg per mL) in their water. Mice drink ˜5 mL of water per day and therefore consumed ˜10 mg GSAO or GSM per kg per day. The water contained 100 mM glycine to minimise oxidation of GSAO. Tumour volume and animal weight was measured every 3 days. The data points and errors represent the mean and SE of the tumour volumes.
SCID mice bearing subcutaneous human pancreatic carcinoma tumours or C57Bl6/J mice bearing subcutaneous murine Lewis lung tumours were fed either ˜10 mg per kg per day GSAO or GSAA in their water.

SMILES	Proliferation IC50 (3T3 [1])	Proliferation IC50 (BVSM)	effect on viability of BAE cells (BAE [2]; not shown)	effect on proliferation of BAE cells (BAE [3]; not shown)	rate of BxPC-3 tumour growth (BxPC-3 tumours [4])	Viability IC50 (3T3 [5]; 5% FCS)	effect on tube formation (HDMVE cells)	growth of pancreatic tumours (BxPC-3 tumours [6])	IC50 (BAE [2]; Bos taurus, 72 h, 10% BCS, >90% confluent) [µM]	IC50 (BAE [3]; 5% BCS) [µM]	IC50 (BAE [3]; 10% BCS) [µM]	slowing of tumour growth in one mouse (BxPC-3 tumours [4]) [%]	IC50 (3T3 [5]; Mus musculus, NIH3T3, 5% FCS) [µM]
N[C@@H](CCC(=O)N[C@@H](CSCC(=O)Nc1ccc([As](=O)(O)O)cc1)C(=O)NCC(=O)O)C(=O)O [GSAA, 4-(N-(S-glutathionylacetyl)amino)phenylarsonic acid, reference compound]	no significant effect	no significant effect	did not effect either proliferation or viability	did not effect either proliferation or viability	no significant effect	no significant effect	no apparent effect on tube formation	no significant effect					
NC(CCC(=O)NC(CSCC(=O)Nc1ccc([As]=O)cc1)C(=O)NCC(=O)O)C(=O)O (stereo not drawn) [GSAO, 4-(N-(S-glutathionylacetyl)amino)-phenylarsenoxide]	did not affect the proliferation; also recorded: No effect	did not affect the proliferation			halted completely in two other mice		Effects were apparent at 0.1 μM concentration and marked at 100 μM	stopped growing	~10	~0.02	~0.2	50	~40
